From patent US20150174213A1, “COMPOSITIONS COMPRISING SULFORAPHANE OR A SULFORAPHANE PRECURSOR AND URSOLIC ACID” (Nutramax Laboratories, Inc., priority 2012, published 2015)
Blank lines part the entries; values can stand above or below the compound they belong to.

How the values were obtained:
myrosinase [1] = experiment: Equimolar conversion of glucoraphanin to sulforaphane by myrosinase with ascorbic acid (Example 4); type: biochemical, broccoli; conditions: control sample, without ascorbic acid
Method: A two-part experiment was conducted to further elucidate the role of ascorbic acid in modulating myrosinase activity. […] A control sample contained no ascorbic acid, and the enzymatic conversion proceeded unassisted by a co-factor. PART 1. […] PART 2. While keeping the amount of broccoli seed extract fixed at 250 mg, the concentration of ascorbic acid was varied from 0.4 mmol/Liter to 3.8 mmol/Liter.

mammary epithelium = conditions: oral administration, Sprague-Dawley rats; cited from earlier work
mammary tumors = conditions: Sprague-Dawley rats; cited from earlier work
myrosinase [2] = experiment: Conversion of glucoraphanin to sulforaphane in Simulated Intestinal Fluid (Example 5); type: biochemical, broccoli; conditions: 0.25 to 1.00 mmol/Liter ascorbic acid, 38° C., FIG. 4
Method: Simulated Intestinal Fluid (SIF) powder, a commercially supplied concentrate closely approximating the human intestinal content in terms of composition, pH and ionic strength, was used. The experiment utilized a USP Dissolution Apparatus 2 (paddles), where into six dissolution vessels 500 mL of Simulated Intestinal Fluid was dispensed, along with 150 mg of freeze-dried broccoli sprout powder as a source of myrosinase. […] Aliquots were withdrawn every 15 minutes, and assayed for sulforaphane.

Stoichiometry of conversion of glucoraphanin to sulforaphane (myrosinase [1]): equimolar conversion
Compound: C[S+]([O-])CCCC/C(=N\OS(=O)(=O)O)S[C@@H]1O[C@H](CO)[C@@H](O)[C@H](O)[C@H]1O (some centres unmarked) [glucoraphanin, 4-methylsulfinylbutyl glucosinolate]

Compound: C[S+]([O-])CCCCN=C=S (centres unmarked) [SFN, 1-isothiocyanato-4-methylsulfinylbutane]
Elevated immunostaining of the heme oxygenase-1 (HO-1) enzyme (mammary epithelium): 4 fold | Increase in NAD(P)H:quinine oxidoreductase (NQO1) enzymatic activity (mammary epithelium): 3 fold | Blocking the formation of mammary tumors (mammary tumors): effective

Compound: O=C1O[C@H]([C@@H](O)CO)C(O)=C1O [Ascorbic Acid, Ascorbic acid]
Yield of sulforaphane versus ascorbic acid concentration (myrosinase [2]): direct correlation between larger yield of sulforaphane and higher concentrations of ascorbic acid
